Experimental data: publication PMC6138237, “Machine intelligence decrypts β-lapachone as an allosteric 5-lipoxygenase inhibitor” (Chemical Science, 2018)
Read-outs that look alike come from different tables or passages of the source.

Experiments:
IKKα = target: T1, IKKα (Homo sapiens, UniProt O15111); experiment: ExpresS Diversity Kinase Profile, Cerep (LANCE): IKKα; format: biochemical
T1 sequence (O15111 1-745): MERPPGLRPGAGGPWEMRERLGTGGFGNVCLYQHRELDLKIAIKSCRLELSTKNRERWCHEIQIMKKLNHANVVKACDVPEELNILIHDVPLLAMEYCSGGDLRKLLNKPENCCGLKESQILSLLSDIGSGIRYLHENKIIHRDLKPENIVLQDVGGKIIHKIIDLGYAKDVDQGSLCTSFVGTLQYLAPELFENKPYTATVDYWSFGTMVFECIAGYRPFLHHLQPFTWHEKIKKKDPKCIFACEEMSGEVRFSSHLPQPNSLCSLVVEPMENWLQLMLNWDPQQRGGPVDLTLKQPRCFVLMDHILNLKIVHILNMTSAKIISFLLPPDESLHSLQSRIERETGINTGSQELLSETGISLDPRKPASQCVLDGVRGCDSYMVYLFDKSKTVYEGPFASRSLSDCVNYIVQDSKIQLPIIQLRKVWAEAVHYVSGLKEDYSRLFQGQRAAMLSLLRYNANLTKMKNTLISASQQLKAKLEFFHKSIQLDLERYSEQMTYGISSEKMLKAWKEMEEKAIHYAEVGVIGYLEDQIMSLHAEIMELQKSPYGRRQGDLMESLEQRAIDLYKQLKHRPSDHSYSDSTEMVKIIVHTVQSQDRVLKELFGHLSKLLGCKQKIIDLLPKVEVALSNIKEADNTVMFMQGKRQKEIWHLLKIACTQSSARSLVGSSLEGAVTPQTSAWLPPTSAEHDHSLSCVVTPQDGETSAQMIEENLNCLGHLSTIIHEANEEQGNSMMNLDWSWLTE

FGFR1 = FGFR1 (Homo sapiens, UniProt P11362); experiment: ExpresS Diversity Kinase Profile, Cerep (LANCE): FGFR1; format: biochemical
Sequence of FGFR1 (P11362 22-822): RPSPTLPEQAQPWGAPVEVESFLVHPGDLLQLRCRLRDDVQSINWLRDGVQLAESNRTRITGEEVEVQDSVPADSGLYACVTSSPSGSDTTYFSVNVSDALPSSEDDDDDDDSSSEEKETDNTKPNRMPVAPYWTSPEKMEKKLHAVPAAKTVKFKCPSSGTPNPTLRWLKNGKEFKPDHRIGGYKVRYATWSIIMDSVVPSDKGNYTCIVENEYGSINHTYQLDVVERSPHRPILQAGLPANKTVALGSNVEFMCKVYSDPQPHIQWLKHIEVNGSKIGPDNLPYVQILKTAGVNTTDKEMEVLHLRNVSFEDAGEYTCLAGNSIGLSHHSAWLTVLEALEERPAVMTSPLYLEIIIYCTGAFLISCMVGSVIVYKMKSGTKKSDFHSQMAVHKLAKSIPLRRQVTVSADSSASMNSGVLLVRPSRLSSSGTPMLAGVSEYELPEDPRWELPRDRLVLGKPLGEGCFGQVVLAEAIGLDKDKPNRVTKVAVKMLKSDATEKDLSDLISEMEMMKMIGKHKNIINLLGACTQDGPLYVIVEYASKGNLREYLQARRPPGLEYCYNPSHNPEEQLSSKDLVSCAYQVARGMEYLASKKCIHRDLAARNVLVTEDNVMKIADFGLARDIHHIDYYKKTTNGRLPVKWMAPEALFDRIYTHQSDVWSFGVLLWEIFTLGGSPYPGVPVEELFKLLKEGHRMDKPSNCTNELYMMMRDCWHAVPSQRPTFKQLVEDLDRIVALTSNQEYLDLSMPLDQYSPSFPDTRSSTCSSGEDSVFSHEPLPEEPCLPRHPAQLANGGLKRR

[1] = Flag: Interference, read-out: % Inhibition of control values, 1st measurement
[2] = Flag: Interference, read-out: % Inhibition of control values, 2nd measurement
[3] = n = 2, Flag: Interference, read-out: % Inhibition of control values, Mean

In the case of `CC1(C)CCC2=C(O1)c1ccccc1C(=O)C2=O` [β-Lapachone], the inhibition at 150 µM (IKKα; [1]) is reported as 59.5%, the inhibition at 150 µM (IKKα; [2]) is reported as 59.4% and the inhibition at 150 µM (IKKα; [3]) is reported as 59.5%. For the same molecule, the inhibition at 150 µM (FGFR1; [1]) was 51.5%, the inhibition at 150 µM (FGFR1; [2]) was 60.5% and the inhibition at 150 µM (FGFR1; [3]) was 56%.
